Source: patent publication US12589101B2, “Cyclodextrin protein drug conjugates” (Regeneron Pharmaceuticals, Inc., priority 2017, dated 2026)
Converted amounts (≈) assume the structure as drawn. Like-named read-outs stand apart in the source and are kept apart here.

Legend:
Cathepsin B = Cathepsin B (Homo sapiens, UniProt P07858); experiment: Cathepsin B cleavage rate of linker-payloads (Example 66); format: biochemical; details: Cathepsin B cleavage rate; for capB: Table 8A; for CapB (%): pH 5.0, 37° C.
Method: Step 1: Preparation of Cathepsin B buffer: 0.1 M NaOAc/0.01M DTT (pH5.0) Dissolve 8.3 g/L NaOAc, 1.54 g/L DTT in deionized water. Adjust pH to 5.0 with HCl/sodium hydroxide.
Step 2: Test Cleavage Rate
• 1. Prepare 25 μM of testing sample: To a 2-mL-tube was added 0.5 mg of testing sample, followed by the addition of 0.2 mL of DMSO. The solution was added dropwise into 0.8 mL of 0.1 M NaOAc/0.01 M DTT buffer. The obtained mixtures were sonicated for 5 minutes to obtain clear and colorless solutions. The pH value of the solution was around 5 according to pH test strip. • 2. Preheat assay buffer: 0.1 M NaOAc/0.01 M DTT (pH 5.0) • 3. Spiking solutions for test compounds: 25 μM Spiking solutions for test compounds: Add 2 μL of 5 mM stock solution into 398 μL of 0.1 M NaOAc/0.01 M DTT buffer (pH 5.0). • 4. Prepare 0.47 μg/μL Cathepsin B in 50 mM NaOAc/1 mM EDTA (pH 5.0). Put on ice. • 5. Without CA074 samples: Add 4 μL of 0.47 μg/μL Cathepsin B into 196 μL of 25 μM Spiking solutions (from step 2), incubate the tubes at 37° C. • 6. With CA074 samples: Add 4 μL of 0.47 μg/μL Cathepsin B with 4 μL of 10 mM Inhibitor (CA074) into 196 μL of 25 μM Spiking solutions (from step 2), incubate the tubes. • 7. After quenching, shake the plate and centrifuge them at 14000 rpm. • 8. Transfer 50 μL of the supernatant from each well into a 96-well sample plate containing 50 μL of ultra pure water (Millipore, ZMQS50F01) for LC/MS analysis. Step 3: Test reference compounds: • 9. Preheat assay buffer: 100 mM Na/K phosphate, pH 6.0, with 1.33 mM EDTA and 2 mM DTT. • 10. Prepare 0.024 μg/μL Cathepsin B: Add 1 μL of 0.47 μg/μL Cathepsin B stock into 19 μL of assay buffer (from step 11). • 11. Add 2 μL of 0.024 μg/μL Cathepsin B (from step 12) to a opaque 96-well plate. • 12. Add 96 μL of assay buffer to each sample. • 13. Add 2 μL of the 10 mM substrate Z-RR-MNA (200 μM final concentration). • 14. For negative control (With inhibitor), add 2 μL of 10 mM Inhibitor (CA074): Immediately read the samples in a kinetic mode at excitation of 340 nm/emission of 425 nm (Read the plate every 30 Second for 3 min). Step 4: Stability of Cathepsin B in incubation samples: • 15. Take 5 μL of incubation samples into 93 μL of assay buffer (from step 11), and then add 2 μL of 10 mM substrate (Z-RR-MNA). • 16. Incubate the samples at 37° C. for 2 min. • 17. Read the samples at excitation of 340 nm/emission of 425 nm.

[1] = Solubility of linker-payloads (LC-MS standard curve, saturated solution); format: physicochemical; details: water, thermodynamic from solid
Method: The following test assays the solubility of the linker-payloads with a cyclodextrin moiety and the linker-payloads without a cyclodextrin moiety.
The test compounds were dissolved in DMSO to build a standard curve using LC-MS method A or B. The test sample was dissolved in water and sonicated for 10 minutes, and then centrifuged. The upper clear solution was analyzed using the same method A or B and the solubility was calculated based on its peak area.
Detailed test procedures were as follows: • 1. […] 0.05 mg of compound was suspended in water (1 mL) and sonicated for 10 minutes. After centrifugation, the clear solution above was collected to provide the saturated sample solution. • 3. All the standard solutions A, B, C, D, E and sample solution were analyzed by LCMS (using the same method and same injection volume) to obtain the peak areas. • 4. Calculate the standard curve according to the data of A-D (X=concentration, Y=peak areas). • 5. Calculate to obtain the concentration of saturated sample solution according to the functions obtained above.

Structure (SMILES): CCCC1O[C@@H]2C[C@H]3[C@@H]4C[C@H](F)C5=CC(=O)C=C[C@]5(C)[C@@]4(F)[C@@H](O)C[C@]3(C)[C@]2(C(=O)COc2ccc(NC(=O)OCc3ccc(NC(=O)[C@H](CCCNC(N)=O)NC(=O)[C@@H](NC(=O)[C@@H](CCCCNC(=O)COC4CCCCCc5c4nnn5CC4OC5OC6C(CO)OC(OC7C(CO)OC(OC8C(CO)OC(OC9C(CO)OC(OC%10C(CO)OC(OC4C(O)C5O)C(O)C%10O)C(O)C9O)C(O)C8O)C(O)C7O)C(O)C6O)NC(=O)CCOCCOCCOCCOCCNC(=O)CCC(=O)N4Cc5ccccc5C#Cc5ccccc54)C(C)C)cc3)cc2)O1 (stereo partly drawn) [Ex62, DIBAC-suc-PEG4-dLys(COT-CD)-vcPAB-1i]
- capB (Cathepsin B): 12.8%
- CapB (%) (Cathepsin B): % (% ≤50 CapB (%))

Structure (SMILES): CC(C)[C@H](NC(=O)[C@@H](CCCCNC(=O)CCOCCOCCOCCOCCNC(=O)COC1CCCCCc2nnn(CC3OC4OC5C(CO)OC(OC6C(CO)OC(OC7C(CO)OC(OC8C(CO)OC(OC9C(CO)OC(OC3C(O)C4O)C(O)C9O)C(O)C8O)C(O)C7O)C(O)C6O)C(O)C5O)c21)NC(=O)CCOCCOCCOCCOCCNC(=O)OCC1C2CCC#CCCC21)C(=O)N[C@@H](CCCNC(N)=O)C(=O)Nc1ccc(COC(=O)NCCOc2ccc3c(c2)[C@@]2(C)CCC[C@](C)(C(=O)NC(=O)[C@@]4(C)CCC[C@]5(C)c6cc(O)ccc6CC[C@@H]45)[C@@H]2CC3)cc1 (stereo partly drawn) [Ex52, BCN-PEG4-D-Lys(PEG4-COT-CD)-vcPAB-1e]
- solubility at 10 min ([1]; Aq. Solubility (mg/mL)): 300 µg/mL (≈ 102 µM)
- solubility at 10 min ([1]; Solubility): 290 µg/mL (≈ 98.7 µM)

Structure (SMILES): CC(C)[C@H](NC(=O)[C@@H](CCCCNC(=O)CCOCCOCCOCCOCCNC(=O)COC1CCCCCc2nnn(CC3OC4OC5C(CO)OC(OC6C(CO)OC(OC7C(CO)OC(OC8C(CO)OC(OC9C(CO)OC(OC3C(O)C4O)C(O)C9O)C(O)C8O)C(O)C7O)C(O)C6O)C(O)C5O)c21)NC(=O)CCOCCOCCOCCOCCNC(=O)OCC1C2CCC#CCCC21)C(=O)N[C@@H](C)C(=O)Nc1ccc2c(c1)[C@@]1(C)CCC[C@](C)(C(=O)NC(=O)[C@@]3(C)CCC[C@]4(C)c5cc(O)ccc5CC[C@@H]34)[C@@H]1CC2 (stereo partly drawn) [Ex51, BCN-PEG4-D-Lys(PEG4-COT-CD)-Val-Ala-1d]
- solubility at 10 min ([1]; Aq. Solubility (mg/mL)): 180 µg/mL (≈ 67.7 µM)
- solubility at 10 min ([1]; Solubility): 330 µg/mL (≈ 124 µM)

Structure (SMILES): CC[C@H](C)[C@@H]([C@@H](CC(=O)N1CCC[C@H]1[C@H](OC)[C@@H](C)C(=O)N[C@H](C)[C@@H](O)c1ccccc1)OC)N(C)C(=O)[C@@H](NC(=O)[C@H](C(C)C)N(C)C(=O)OCc1ccc(NC(=O)[C@H](CCCNC(N)=O)NC(=O)[C@@H](NC(=O)[C@@H](CCCCNC(=O)CCOCCOCCOCCOCCNC(=O)COC2CCCCCc3c2nnn3CC2OC3OC4C(CO)OC(OC5C(CO)OC(OC6C(CO)OC(OC7C(CO)OC(OC8C(CO)OC(OC2C(O)C3O)C(O)C8O)C(O)C7O)C(O)C6O)C(O)C5O)C(O)C4O)NC(=O)CCOCCOCCOCCOCCNC(=O)CCC(=O)N2Cc3ccccc3C#Cc3ccccc32)C(C)C)cc1)C(C)C (stereo partly drawn) [Ex43]
- CapB (%) (Cathepsin B): % (50< % ≤60 CapB (%))

Structure (SMILES): CC(C)[C@H](NC(=O)[C@@H](CCCCNC(=O)COC1CCCCCc2c1nnn2CC1OC2OC3C(CO)OC(OC4C(CO)OC(OC5C(CO)OC(OC6C(CO)OC(OC7C(CO)OC(OC1C(O)C2O)C(O)C7O)C(O)C6O)C(O)C5O)C(O)C4O)C(O)C3O)NC(=O)CCOCCOCCOCCOCCNC(=O)OCC1C2CCC#CCCC21)C(=O)N[C@@H](C)C(=O)Nc1ccc2c(c1)[C@@]1(C)CCC[C@](C)(C(=O)NC(=O)[C@@]3(C)CCC[C@]4(C)c5cc(O)ccc5CC[C@@H]34)[C@@H]1CC2 (stereo partly drawn) [Ex54, BCN-PEG4-D-Lys(COT-CD)-Val-Ala-1d]
- solubility at 10 min ([1]; Aq. Solubility (mg/mL)): 300 µg/mL (≈ 124 µM)

Structure (SMILES): CC(C)[C@H](NC(=O)[C@@H](CCCCNC(=O)COC1CCCCCc2c1nnn2CC1OC2OC3C(CO)OC(OC4C(CO)OC(OC5C(CO)OC(OC6C(CO)OC(OC7C(CO)OC(OC8C(CO)OC(OC9C(CO)OC(OC1C(O)C2O)C(O)C9O)C(O)C8O)C(O)C7O)C(O)C6O)C(O)C5O)C(O)C4O)C(O)C3O)NC(=O)CCOCCOCCOCCOCCNC(=O)CCC(=O)N1Cc2ccccc2C#Cc2ccccc21)C(=O)N[C@@H](C)C(=O)Nc1ccc2c(c1)[C@@]1(C)CCC[C@](C)(C(=O)NC(=O)[C@@]3(C)CCC[C@]4(C)c5cc(O)ccc5CC[C@@H]34)[C@@H]1CC2 (stereo partly drawn) [Ex57, DIBAC-suc-PEG4-D-Lys(COT-CD)-vcPAB-1d]
- capB (Cathepsin B): 8.3%

Structure (SMILES): CCCC1O[C@@H]2C[C@H]3[C@@H]4C[C@H](F)C5=CC(=O)C=C[C@]5(C)[C@@]4(F)[C@@H](O)C[C@]3(C)[C@]2(C(=O)COc2ccc(NC(=O)[C@H](C)NC(=O)[C@@H](NC(=O)[C@@H](CCCCNC(=O)COC3CCCCCc4c3nnn4CC3OC4OC5C(CO)OC(OC6C(CO)OC(OC7C(CO)OC(OC8C(CO)OC(OC9C(CO)OC(OC3C(O)C4O)C(O)C9O)C(O)C8O)C(O)C7O)C(O)C6O)C(O)C5O)NC(=O)CCOCCOCCOCCOCCNC(=O)CCC(=O)N3Cc4ccccc4C#Cc4ccccc43)C(C)C)cc2)O1 (stereo partly drawn) [Ex63, DIBAC-suc-PEG4-dLys(COT-CD)-Val-Ala-1i]
- CapB (%) (Cathepsin B): % (% ≤50 CapB (%))

Structure (SMILES): CC[C@H](C)[C@@H]([C@@H](CC(=O)N1CCC[C@H]1[C@H](OC)[C@@H](C)C(=O)N[C@H](C)[C@@H](O)c1ccccc1)OC)N(C)C(=O)[C@@H](NC(=O)[C@H](C(C)C)N(C)C(=O)OCc1ccc(NC(=O)[C@H](CCCNC(N)=O)NC(=O)[C@@H](NC(=O)[C@@H](CCCCNC(=O)CCOCCOCCOCCOCCNC(=O)COC2CCCCCc3c2nnn3CC2OC3OC4C(CO)OC(OC5C(CO)OC(OC6C(CO)OC(OC7C(CO)OC(OC8C(CO)OC(OC2C(O)C3O)C(O)C8O)C(O)C7O)C(O)C6O)C(O)C5O)C(O)C4O)NC(=O)CCOCCOCCOCCOCCNC(=O)OC[C@@H]2[C@@H]3CCC#CCC[C@@H]32)C(C)C)cc1)C(C)C (stereo partly drawn) [Ex44]
- CapB (%) (Cathepsin B): % (50< % ≤60 CapB (%))

Structure (SMILES): CC[C@H](C)[C@@H]([C@@H](CC(=O)N1CCC[C@H]1[C@H](OC)[C@@H](C)C(=O)N[C@H](C)[C@@H](O)c1ccccc1)OC)N(C)C(=O)[C@@H](NC(=O)[C@H](C(C)C)N(C)C(=O)OCc1ccc(NC(=O)[C@H](CCCNC(N)=O)NC(=O)[C@@H](NC(=O)[C@@H](CCCCNC(=O)CCC(=O)N2Cc3ccccc3C#Cc3ccccc32)NC(=O)CCCCCN2C(=O)CC(N3CCN(CC4OC5OC6C(CO)OC(OC7C(CO)OC(OC8C(CO)OC(OC9C(CO)OC(OC%10C(CO)OC(OC4C(O)C5O)C(O)C%10O)C(O)C9O)C(O)C8O)C(O)C7O)C(O)C6O)CC3)C2=O)C(C)C)cc1)C(C)C (stereo partly drawn) [Ex38]
- solubility at 10 min ([1]; aqueous, read-out: Aq. Solubility): 500 µg/mL (≈ 180 µM)
- solubility at 10 min ([1]; read-out: Solubility): 250 µg/mL (≈ 90.2 µM)

Structure (SMILES): CC(C)[C@H](NC(=O)[C@@H](CCCCNC(=O)COC1CCCCCc2c1nnn2CC1OC2OC3C(CO)OC(OC4C(CO)OC(OC5C(CO)OC(OC6C(CO)OC(OC7C(CO)OC(OC1C(O)C2O)C(O)C7O)C(O)C6O)C(O)C5O)C(O)C4O)C(O)C3O)NC(=O)CCOCCOCCOCCOCCNC(=O)CCC(=O)N1Cc2ccccc2C#Cc2ccccc21)C(=O)N[C@@H](CCCNC(N)=O)C(=O)Nc1ccc(COC(=O)N[C@@H](CO)C(=O)Nc2ccc3c(c2)[C@@]2(C)CCC[C@](C)(C(=O)NC(=O)[C@@]4(C)CCC[C@]5(C)c6cc(O)ccc6CC[C@@H]45)[C@@H]2CC3)cc1 (stereo partly drawn) [Ex56, DIBAC-suc-PEG4-D-Lys(COT-CD)-vcPAB-1g]
- solubility at 10 min ([1]; Aq. Solubility (mg/mL)): < 100 µg/mL
- solubility at 10 min ([1]; Solubility): < 100 µg/mL
